Measured values from publication PMC9497135, “Structure-Based Study to Overcome Cross-Reactivity of Novel Androgen Receptor Inhibitors” (Cells, 2022).

How the values were obtained:
[1] = system: endogenous wild type AR in R1-AD1 cells; experiment: AR transcriptional activity in R1-AD1 cells; type: cell-based, human; settings: 0.1 nM R1881
T878A AR LBD = biological target: T1, T878A AR LBD (Homo sapiens, UniProt P10275, T878A); experiment: Biolayer interferometry (BLI), T878A LBD; type: binding
T1 construct: made in house; host or cells: E. coli BL21-DE3 co-transformed with pBirACm
T1 sequence (P10275 669-900 T878A limits assumed): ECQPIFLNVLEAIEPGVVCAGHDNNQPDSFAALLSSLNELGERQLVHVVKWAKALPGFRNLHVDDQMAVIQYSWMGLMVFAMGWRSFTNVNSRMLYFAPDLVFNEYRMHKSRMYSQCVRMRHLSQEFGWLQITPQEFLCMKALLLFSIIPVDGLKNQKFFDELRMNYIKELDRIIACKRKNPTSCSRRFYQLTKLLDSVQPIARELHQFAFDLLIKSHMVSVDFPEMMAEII
Procedure: The direct reversible interaction between small molecules and the AR was quantified by BLI using OctetRED (ForteBio, Fremont, CA, USA). The wild type and T878A-LDB in fusion with an N-terminal (His)6-avidin ([…]) tag were expressed in E. coli BL21-DE3 cells co-transformed with pBirACm plasmid (Avidity), which expresses a biotin ligase leading to the biotynilation of the avidin tag on the LBD. Cells were grown in LB media at 37 °C to an OD600nm = 0.5 and then induced with 0.5 mM isopropyl-β-D-thiogalactoside. A measure of 20 µM of dihydrotestosterone (DHT) and 0.15 mM biotin were added and the cells were incubated at 16 °C for 18 to 20 h. Cells were then resuspended and lysed in buffer containing 500 mM Li2SO4, 50mM HEPES pH7.2, 10% Glycerol, 0.1% Octyl-beta-Glucoside, 20 µM of DHT, 5 mM β-mercaptoethanol, 10 mM imidazole and 0.1 mM phenylmethanesulfonyl fluoride. […] After an overnight dialysis against 150 mM Li2SO4, 50 mM HEPES pH7.2, 10% Glycerol, 0.1% Octyl-beta-Glucoside, 20 µM of DHT and 0.2 mM tris(2-carboxyethyl)phosphine, purified proteins at 50 µg/mL were bound to the super-streptavidin sensors overnight at 4 °C. The assay was performed at 20 °C in the dialysis buffer supplemented with 5% dimethyl sulfoxide (DMSO) which was also used as our reference measurement.

[2] = biological target: T2, AR (LNCaP cells, which carry the T878A AR mutation) (Homo sapiens, UniProt P10275, T878A); experiment: eGFP cellular AR transcription assay in LNCaP cells (LN-ARR2PB-eGFP); type: cell-based; settings: LNCaP, with R1881, high concentrations
T2 construct: LNCaP cells, which carry the T878A AR mutation; endogenous in cells; host or cells: LNCaP (LN-ARR2PB-eGFP)
T2 sequence (P10275 1-920 T878A): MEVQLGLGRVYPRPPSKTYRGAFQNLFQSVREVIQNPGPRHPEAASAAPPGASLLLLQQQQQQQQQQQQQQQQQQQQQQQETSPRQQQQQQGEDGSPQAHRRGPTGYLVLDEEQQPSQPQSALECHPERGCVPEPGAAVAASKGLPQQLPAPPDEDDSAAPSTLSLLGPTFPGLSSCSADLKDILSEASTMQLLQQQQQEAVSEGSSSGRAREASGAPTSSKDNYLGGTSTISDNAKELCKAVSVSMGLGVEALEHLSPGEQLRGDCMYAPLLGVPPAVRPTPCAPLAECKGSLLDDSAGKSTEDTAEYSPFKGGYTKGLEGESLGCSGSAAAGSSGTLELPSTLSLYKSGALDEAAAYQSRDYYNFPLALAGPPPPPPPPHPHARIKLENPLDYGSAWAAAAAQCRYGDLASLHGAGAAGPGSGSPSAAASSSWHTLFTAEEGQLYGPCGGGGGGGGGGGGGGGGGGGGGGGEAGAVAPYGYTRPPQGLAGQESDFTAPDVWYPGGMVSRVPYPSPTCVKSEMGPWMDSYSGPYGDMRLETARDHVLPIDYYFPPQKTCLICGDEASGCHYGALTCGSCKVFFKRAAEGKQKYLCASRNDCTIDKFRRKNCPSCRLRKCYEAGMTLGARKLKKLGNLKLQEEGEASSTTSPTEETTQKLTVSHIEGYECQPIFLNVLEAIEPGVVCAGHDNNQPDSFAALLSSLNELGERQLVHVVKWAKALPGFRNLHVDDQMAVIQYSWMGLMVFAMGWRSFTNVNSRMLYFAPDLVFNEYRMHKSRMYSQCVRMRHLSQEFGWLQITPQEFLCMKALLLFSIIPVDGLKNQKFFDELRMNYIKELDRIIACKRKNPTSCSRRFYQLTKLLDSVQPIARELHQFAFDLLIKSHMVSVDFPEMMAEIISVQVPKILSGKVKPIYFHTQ
Procedure: AR transcriptional activity was assayed as previously described. Briefly, LNCaP human prostate cancer cells (LN-ARR2PB-eGFP), stably transfected with eGFP reporter driven by an androgen responsive probasin-derived promoter (ARR2PB), were grown in phenol red free RPMI 1640 media supplemented with 5% charcoal stripped serum (CSS). After 5 days, the cells were plated into a 96-well plate (35,000 cells/well) with 0.1 nM of the synthetic androgen R1881 and increasing concentrations (0−100 μM) of test compounds. Fluorescence (excitation 485 nm, emission 535 nm) was measured after 3 days of incubation with the compounds.

[3] = system: prostate-specific antigen (PSA) expression in LNCaP cells; experiment: PSA assay in LNCaP cells; type: cell-based; settings: Homo sapiens, 72 h, with R1881, 3 days
Procedure: The PSA assay was performed in parallel with the previous reporter eGFP assay and using the same plates. After 3 days incubation of LNCAP cells with R1881 and the test compound, 150 µL of the media was taken from each well and added to 150 µL of PBS. PSA levels were then evaluated using the Cobas e 411 analyzer instrument (Roche Diagnostics) according to the manufacturer’s instructions.

Androgen Receptor ABS = biological target: T3, Androgen Receptor ABS (Rattus norvegicus, UniProt P15207); experiment: Androgen (DHT) displacement, Polar Screen Androgen Receptor Competitor Green Assay Kit; type: binding; settings: fluorescence polarization kit
T3 construct: purchased
T3 sequence (P15207 647-902 limits assumed): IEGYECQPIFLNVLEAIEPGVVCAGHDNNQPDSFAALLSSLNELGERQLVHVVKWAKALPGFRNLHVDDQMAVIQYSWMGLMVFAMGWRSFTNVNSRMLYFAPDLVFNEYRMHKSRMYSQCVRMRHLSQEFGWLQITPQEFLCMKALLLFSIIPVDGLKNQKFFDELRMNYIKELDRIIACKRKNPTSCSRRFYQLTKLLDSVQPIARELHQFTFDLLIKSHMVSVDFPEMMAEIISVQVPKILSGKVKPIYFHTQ
Procedure: Androgen displacement was assessed with the Polar Screen Androgen Receptor Competitor Green Assay Kit as per the instructions of the manufacturer.

## COc1c(F)cccc1-c1csc(N2CCOCC2)n1 [VPC14368, 4-(4-(3-fluoro-2-methoxyphenyl)thiazol-2-yl)morpholine]
[1]
  Agonistic effect in R1-AD1 cells: not observed
T878A AR LBD
  Direct binding to T878A LBD by BLI: confirmed at high concentrations and in a concentration-dependent manner
T878A AR LBD; Figure 2, 50-300 µM tested
  Concentration at which binding is seen (BLI): above 100 µM
[2]
  Partial agonistic effect in eGFP assay: partial agonistic effect
[3]
  IC50: 130 nM
Androgen Receptor ABS
  Androgen Displacement (Yes/No): Yes
